Experimental data from patent US20130130223A1, “NOVEL CONDITIONALLY IMMORTALIZED HUMAN PROXIMAL TUBULE CELL LINE EXPRESSING FUNCTIONAL INFLUX AND EFFLUX TRANSPORTERS” (priority 2009, published 2013).

How the values were obtained:
OCT2/SLC22A2 = target: T1, OCT2/SLC22A2 (Homo sapiens, UniProt O15244); assay: OCT2/SLC22A2 activity (basolateral ASP uptake); format: cell-based
T1 construct: investigated in ciPTEC-14.4 by measuring the activity and expression of the solute carrier tansporter (SLC) OCT2/SLC22A2; endogenous in cells; host or cells: ciPTEC-14.4 grown on Transwell filters
T1 sequence (O15244 1-555): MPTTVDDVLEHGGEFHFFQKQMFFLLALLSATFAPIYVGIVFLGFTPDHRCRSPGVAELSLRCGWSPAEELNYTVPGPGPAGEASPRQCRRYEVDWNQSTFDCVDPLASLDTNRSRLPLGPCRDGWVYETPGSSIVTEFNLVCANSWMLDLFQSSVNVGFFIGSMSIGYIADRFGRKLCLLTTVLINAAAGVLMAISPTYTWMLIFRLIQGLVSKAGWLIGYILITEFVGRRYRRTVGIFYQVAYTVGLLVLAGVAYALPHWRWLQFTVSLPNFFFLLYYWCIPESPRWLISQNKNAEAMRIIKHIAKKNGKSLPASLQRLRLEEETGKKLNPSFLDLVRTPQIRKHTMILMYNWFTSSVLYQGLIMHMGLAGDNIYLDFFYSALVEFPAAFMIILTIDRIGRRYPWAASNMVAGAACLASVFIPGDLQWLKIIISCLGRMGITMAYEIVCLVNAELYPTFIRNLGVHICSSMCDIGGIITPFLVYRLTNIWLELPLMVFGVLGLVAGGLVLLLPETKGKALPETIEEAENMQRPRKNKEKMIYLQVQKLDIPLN
Protocol: Transport of xenobiotics across the basolateral membrane was investigated in ciPTEC-14.4 by measuring the activity and expression of the solute carrier tansporter (SLC) OCT2/SLC22A2 using a method adapted from Brown et al. Cells were grown on Transwell®-Clear polyester membranes as described before. Activity of OCT2 was measured by incubating 1 μM fluorescent OCT2 substrate 4-(4-(dimethylamino)styryl)-N-methylpyridinium iodide (ASP, Invitrogen) in Hepes-Tris buffer for 1 min at 37° C. at the basal compartment. To inhibit OCT2 mediated uptake, cells were exposed to 100 μM tetrapentylammonium (TPA) at both apical and basal compartments for 10 min prior to uptake of ASP. Additionally, one set of experiments was performed at 4° C. After incubation, transport was arrested using 1 mM ice-cold TPA. Cells were homogenized using 250 μl Hepes-Tris-Triton (0.1%) buffer for 30 min, followed by analyzing fluorescence intensity (excitation 450 nm, emission 642 nm) using Victor3 Multiplate Reader (Perkin Elmer Inc.). Data are expressed as mean+i-SE.

[1] = system: opossum kidney (OK) cells; conditions: reference [20], read-out: Km of apical phosphate transport; cited from earlier work
[2] = system: sodium-dependent transporters NaPi-IIa (SLC34A1) and NaPi-IIc (SLC34A3); assay: Sodium-dependent phosphate uptake (32PO4); format: cell-based, human
Protocol: Phosphate uptake was performed in confluent monolayers using 32PO4 (Perkin Elmer, Waltham Mass., USA) as described earlier. Cells cultured for 10 days at 37° C. were incubated with 0.2 mM KH2PO4 (10 μCi/ml) for 5 min in four independent experiments, in the presence of 137 mM sodium or 137 mM NMDG to study sodium-dependent transport. Additionally, time- (0.5; 1; 2; 5; 10; 15; 30 or 60 min) and concentration-dependent (0.02; 0.07; 0.22; 0.66 or 2 mM PO4) uptake was studied. Data are expressed as mean+/−SE.
(§1) Michaelis-Menten curve fitting for calculation of Km and Vmax values was performed by non-linear regression analysis using GraphPad Prism 4.03 software. Differences in substrate transport in presence or absence of inhibitors or unlabelled analogues were assessed by a paired t-test.

ciPTEC-14.4 = assay: Albumin uptake by endocytosis (BSA-FITC uptake); format: cell-based, human
Protocol: The ability of ciPTEC-14.4 to reabsorb albumin was investigated by the incubation of confluent monolayers in 24 well plates with 50 μg/ml BSA-FITC (Sigma-Aldrich) for 30 min at 37° C. unless described otherwise. Uptake was arrested using ice-cold PBS and cells were detached using trypsin, fixed by paraformaldehyde (0.5%) in PBS and analyzed using flow cytometry or immuno-fluorescence microscopy. Concentration- and temperature-dependent uptake, was investigated using a concentration range BSA-FITC (0; 3.7; 11; 33; 100; 300 μg/ml) at 37° C. and on ice for 30 min. Uptake inhibition was studied in three independent experiments by incubating the cells with BSA-FITC (50 μg/ml) in addition of excess unlabelled BSA (10 mg/ml) or recombinant RAP (1 μM), which was a kind gift of Dr. M. Nielsen (University of Aarhus, Denmark). Uptake inhibition by RAP was further examined using a dilution range of RAP. BSA uptake in saturation experiments are plotted as mean fluorescence intensity and in inhibition experiments as mean (+/−SE) percentage uptake compared to control condition.
as §1

OK cells = conditions: reference [12]; cited from earlier work

**Q.** With `CN(C)c1ccc(/C=C/c2cc[n+](C)cc2)cc1` [ASP, 4-(4-(dimethyl-amino)styryl)-N-methylpyridinium iodide] as the molecule, how does the inhibition at 1 min, 1 μM (OCT2/SLC22A2) read?
**A.** 30%

**Q.** For `CCCCC[N+](CCCCC)(CCCCC)CCCCC` [TPA, tetrapentylammonium], which inhibition at 1 min, 100 μM (OCT2/SLC22A2; 100 μM TPA, 1 μM ASP, 1 min 37° C., basal compartment, p<0.05, read-out: inhibition of ASP transport) is on record?
**A.** 36%

**Q.** For `O=P([O-])(O)O.[K+]` [phosphate, KH2PO4], which Km [1] is on record?
**A.** 370 µM

**Q.** And the “decrease of phosphate uptake in the absence of sodium” value ([2]; 0.2 mM Pi, 5 min, NMDG as sodium replacement, p<0.001)?
**A.** approximately 86%

**Q.** And the Km ([2]; ciPTEC-14.4, read-out: apparent Km of sodium-dependent phosphate uptake)?
**A.** 120 µM

**Q.** With “BSA-FITC: FITC labelled bovine serum albumin” as the molecule, how does the “apparent Km of BSA-FITC uptake” value (ciPTEC-14.4; ciPTEC-14.4, passage 20-25, 30 min, 37° C.) read?
**A.** 126 µg/mL

**Q.** For albumin, which “apparent Km of albumin uptake” value (OK cells) is on record?
**A.** 20 µg/mL

**Q.** For “unlabelled FITC: excess unlabelled bovine serum albumin used as competitor of BSA-FITC uptake”, which “inhibition of BSA-FITC uptake” value (ciPTEC-14.4; 200-fold excess unlabelled (10 mg/ml), BSA-FITC 50 μg/ml, p<0.01) is on record?
**A.** 54%

B1: RAP: recombinant receptor associated protein, known inhibitor of albumin endocytosis by binding to multi-ligand receptor megalin (protein, UniProt P30533 35-357, looked up)
Alpha-2-macroglobulin …: YSREKNQPKPSPKRESGEEFRMEKLNQLWEKAQRLHLPPVRLAELHADLKIQERDELAWKKLKLDGLDEDGEKEARLIRNLNVILAKYGLDGKKDARQVTSNSLSGTQEDGLDDPRLEKLWHKAKTSGKFSGEELDKLWREFLHHKEKVHEYNVLLETLSRTEEIHENVISPSDLSDIKGSVLHSRHTELKEKLRSINQGLDRLRRVSHQGYSTEAEFEEPRVIDLWDLAQSANLTDKELEAFREELKHFEAKIEKHNHYQKQLEIAHEKLRHAESVGDGERVSRSREKHALLEGRTKELGYTVKKHLQDLSGRISRARHNEL
**Q.** Which results are given for B1?
**A.** inhibition of BSA-FITC uptake (ciPTEC-14.4; 1 μM RAP, BSA-FITC 50 μg/ml, 30 min 37° C., p<0.05): 41%; inhibition of BSA-FITC uptake, dilution range of RAP (ciPTEC-14.4; BSA-FITC 50 μg/ml): inhibited the uptake of BSA-FITC in a concentration-dependent manner
